Values quoted from earlier work as cited in publication PMC3815949 (Microbial biotechnology, 2009).

Tested on: DmpA
Type: biochemical, Brucella anthropi

NCCC(N)=O [H-β-Ala-NH2]
Km: ~1.5 mM

N[C@@H](Cc1cnc[nH]1)C(=O)O [L-histidine]
Km: ~51 mM
